Test [1] deals with T1, recombinant PfSUB1 (rPfSUB1) (Plasmodium falciparum, UniProt Q8I0V0).
T1 construct: Chymotrypsin-treated rPfSUB1 (expressed and purified as described previously); made in house
Description: rPfSUB1 fluorogenic peptide substrate cleavage inhibition assay. It is filed as biochemical. The settings on record: fluorogenic peptide substrate; mean ± SD of at least three measurements; read-out: IC50 (nM) (rPfSUB1). An excerpt:
We previously described the development of a fluorescence-based in vitro assay suitable for the evaluation of substrate-based PfSUB1 inhibitors, using recombinant PfSUB1 (rPfSUB1) and fluorogenic peptide substrates based on cleavage sites within endogenous protein substrates of PfSUB1 ([13], [21]). […] This was perhaps unsurprising due to the high molecular mass and polar nature of these compounds, including the presence of a carboxylic acid moiety that was designed to mimic endogenous PfSUB1 protein substrates by interacting with the basic S’ surface of the PfSUB1 active-site cleft ([16]). Collectively, these features likely rendered the compounds poorly membrane penetrant.
Fluorescence of this peptide is quenched by rhodamine dimerization in the intact substrate but increases upon cleavage at the internal Q-D bond. Chymotrypsin-treated rPfSUB1 (expressed and purified as described previously ([16]) was stored at −80 °C as a 228 U/mL stock in 20 mM Tris–HCl pH 8.2, 150 mM NaCl, 10% glycerol, and diluted for use (1:500 or 1:600) in reaction buffer (20 mM Tris–HCl pH 8.2, 150 mM NaCl, 12 mM CaCl2, 25 mM CHAPS). Peptidic boronic acid inhibitors were dissolved in 100% DMSO at 10 or 20 mM, then further diluted in DMSO to generate stock solutions ranging from 500 to 0.01 μM and then used diluted 1:100 in the enzyme reactions. All reactions were performed in wells of white 96-well microwell plates (Nunc); 50 μL diluted rPfSUB1 was preincubated for 5 min with 1 μL each of the serially diluted boronic acid inhibitors, followed by addition of 50 μL substrate solution (0.1 μM final). Subsequent fluorescence increase was continuously monitored using a SpectraMax M5e plate reader and SoftMax Pro-6.3 software, with readings taken every 5 min for 60 min using excitation and emission values of 552 and 580 nm, respectively. […] All experiments were performed in duplicate.

For test [2], the system named is P. falciparum schizonts expressing EXP2-mNeonGreen. The test can be described thus: Time-lapse video microscopy of egress after compound washout. As to conditions: 10 μM, 30 min monitoring after washout. Type of test: cell-based, Plasmodium falciparum.
Test [3] has as its target T2, trypsin (Bos taurus, UniProt P00760).
T2 construct: purchased Sigma-Aldrich T1426; host or cells: bovine pancreas
T2 sequence (P00760 24-246): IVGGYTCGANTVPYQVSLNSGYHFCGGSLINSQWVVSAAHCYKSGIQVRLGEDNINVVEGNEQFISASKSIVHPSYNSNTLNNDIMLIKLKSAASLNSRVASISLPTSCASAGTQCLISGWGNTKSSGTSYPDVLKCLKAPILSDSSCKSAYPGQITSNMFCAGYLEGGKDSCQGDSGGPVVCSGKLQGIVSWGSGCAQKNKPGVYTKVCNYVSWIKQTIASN
Description: Trypsin inhibition assay (Boc-QAR-AMC cleavage). Type of test: biochemical, bovine. As to the method:
Analytical data are in accor dance with those reported in the literature12.
(+)-Pinanediol (1- am inobenzyl)boronate h ydrochloride 9g
A previousl y reported m ethod was used for the first step of the s ynthesis3.
Phenylm agnesium brom ide 0.7 M (3.1 m L, 2.15 mm ol, 1.2 equiv) was added dropwise at −78°C to a solution of (+)-pinanediol dichloromethyl boronate 24 (470 m g, 1.79 mmol, 1.0 equiv) in anh ydrous dieth yl ether (10 m L). Af ter 15 m in ZnCl2 1 M (1.8 m L, 1.8 mm ol, 1.0 equiv) was slowl y added at this t em perature. T he reaction m ixture was allowed to warm up to room tem perature over 2 hours. The inorganic precipitate was filtered off and the solvents were rem oved in vacuo. The residue was dissolved in pentane, washed with water and dried over Na2SO4. Rem oval of the solvent gives a product which was forwarded to the next step without purification. […]
Assays f or inh ib ition of tr yp s in activity (T PC K trea ted, f rom bovine pa ncreas; Sigm a-Aldrich T 1426) were based on cleavage of the fluorogenic peptide substrate Boc -QAR-AMC (Sigma- Aldrich B4153). which contains the fluorescent 7- am ino-4-m ethyl c oum arin (AMC) group. […] Cleavage of this bond results in release of AMC and i ncreased fluorescence. […]

Each structure is given as a SMILES string. Several values for one entry are separate records, joined by “and”; a condition that tells them apart may be missing. Equal values may be shown once.

T1 sequence (Q8I0V0 218-688): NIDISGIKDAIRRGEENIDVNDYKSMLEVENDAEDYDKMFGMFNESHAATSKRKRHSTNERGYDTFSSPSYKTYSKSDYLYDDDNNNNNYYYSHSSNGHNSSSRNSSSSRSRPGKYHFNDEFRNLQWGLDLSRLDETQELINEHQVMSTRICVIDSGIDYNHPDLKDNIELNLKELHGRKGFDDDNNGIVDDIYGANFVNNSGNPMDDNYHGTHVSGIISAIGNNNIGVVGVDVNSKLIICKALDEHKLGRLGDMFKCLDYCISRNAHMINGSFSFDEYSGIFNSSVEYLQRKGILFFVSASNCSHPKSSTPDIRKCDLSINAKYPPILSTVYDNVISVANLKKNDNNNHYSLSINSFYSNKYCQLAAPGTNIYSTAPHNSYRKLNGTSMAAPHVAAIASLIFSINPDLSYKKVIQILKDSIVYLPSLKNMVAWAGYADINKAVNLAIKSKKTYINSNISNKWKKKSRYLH

In the case of `CC(=O)NC(C(=O)NC(C(=O)NCC(=O)NC(C)B(O)O)C(C)C)C1CCCC1` (stereo not shown) [3j], the 50% inhibitory concentration (IC50) (usually the midpoint of a concentration-inhibition curve) in test [1] is ~5.7 nM and 5.7 nM; in test [3] (bovine trypsin, Boc-QAR-AMC) it was over 10000 nM. For the same molecule, the egress following washout result in test [2] is recorded as “no egress occurred over the course of 30 min”. The “effect on trypsin activity” value in test [3] (10 µM) was “no detectable effect”.
